Measurements published in ChEMBL document CHEMBL1158270, “Triangulynes A-H and trangulynic acid, new cytotxic polyacetylenes from the marine sponge Pellina triangulata” (1996).

Legend:
Assay type in all cases: functional
T47D = assay: Cytotoxicity against human T47D cells
UACC-62 = assay: Cytotoxicity against human UACC62 cells
NCI-H322M = assay: Cytotoxicity against human NCI-H322M cells
UACC-257 = assay: Cytotoxicity against human UACC257 cells
SR = assay: Cytotoxicity against human SR cells
IGROV-1 = assay: Cytotoxicity against human IGROV1 cells
EKVX = assay: Cytotoxicity against human EKVX cells
HOP-62 = assay: Cytotoxicity against human HOP62 cells
SW-620 = assay: Cytotoxicity against human SW620 cells
MDA-N = assay: Cytotoxicity against human MDA-N cells
NCI-H226 = assay: Cytotoxicity against human NCI-H226 cells
[1] = Cytotoxicity against human MCF7/ADR cells; conditions: NCI/ADR-RES
SF-268 = assay: Cytotoxicity against human SF268 cells
SK-MEL-2 = assay: Cytotoxicity against human SK-MEL-2 cells
SNB-75 = assay: Cytotoxicity against human SNB75 cells
SK-MEL-5 = assay: Cytotoxicity against human SK-MEL-5 cells
786-0 = assay: Cytotoxicity against human 786-0 cells
HCC 2998 = assay: Cytotoxicity against human HCC2998 cells
PC-3 = assay: Cytotoxicity against human PC3 cells
NCI-H522 = assay: Cytotoxicity against human NCI-H522 cells
RXF 393 = assay: Cytotoxicity against human RXF393 cells
KM12 = assay: Cytotoxicity against human KM12 cells
OVCAR-3 = assay: Cytotoxicity against human OVCAR-3 cells
U-251 = assay: Cytotoxicity against human U251 cells
MOLT-4 = assay: Cytotoxicity against human MOLT4 cells
MDA-MB-231 = assay: Cytotoxicity against human MDA-MB-231 cells
A549 = assay: Cytotoxicity against human A549 cells
MDA-MB-435 = assay: Cytotoxicity against human MDA-MB-435 cells
UO-31 = assay: Cytotoxicity against human UO31 cells
NCI-H460 = assay: Cytotoxicity against human NCI-H460 cells
SN12C = assay: Cytotoxicity against human SN12C cells
CAKI-1 = assay: Cytotoxicity against human Caki1 cells
[2] = Cytotoxicity against human Hs 578T cells
SF-295 = assay: Cytotoxicity against human SF295 cells
OVCAR-8 = assay: Cytotoxicity against human OVCAR8 cells
SK-OV-3 = assay: Cytotoxicity against human SKOV3 cells
HT-29 = assay: Cytotoxicity against human HT29 cells
LOX IMVI = assay: Cytotoxicity against human LOXIMVI cells
A498 = assay: Cytotoxicity against human A498 cells
Malme-3M = assay: Cytotoxicity against human MALME-3M cells
SNB-19 = assay: Cytotoxicity against human SNB19 cells
HCT-116 = assay: Cytotoxicity against human HCT116 cells
M14 = assay: Cytotoxicity against human M14 cells
RPMI-8226 = assay: Cytotoxicity against human RPMI8226 cells
OVCAR-5 = assay: Cytotoxicity against human OVCAR5 cells
[3] = read-out: pLC50 (the source's name) (converted)

C#C[C@H](O)/C=C/CCCCCCCCCC/C=C\CCCCCCC[C@H](O)C#CC#CC#CCO [TRIANGULYNE A]
GI50 (T47D): 1.51 µM
CC50 (T47D; [3]): 47.9 µM
TGI (T47D; read-out: pTGI (converted)): 7.24 µM
GI50 (UACC-62): 0.229 µM
CC50 (UACC-62; [3]): 9.12 µM
TGI (UACC-62; read-out: pTGI (converted)): 0.646 µM
GI50 (NCI-H322M): 3.31 µM
CC50 (NCI-H322M; [3]): 57.5 µM
TGI (NCI-H322M; read-out: pTGI (converted)): 12 µM
GI50 (UACC-257): 0.513 µM
CC50 (UACC-257; [3]): 8.13 µM
TGI (UACC-257; read-out: pTGI (converted)): 2.09 µM
GI50 (SR): 0.182 µM
LC50 (SR): 100 µM
TGI (SR; read-out: pTGI (converted)): 3.24 µM
GI50 (IGROV-1): 0.49 µM
CC50 (IGROV-1; [3]): 8.13 µM
TGI (IGROV-1; read-out: pTGI (converted)): 1.82 µM
GI50 (EKVX): 0.871 µM
CC50 (EKVX; [3]): 6.76 µM
TGI (EKVX; read-out: pTGI (converted)): 2.4 µM
GI50 (HOP-62): 1.58 µM
CC50 (HOP-62; [3]): 75.9 µM
TGI (HOP-62; read-out: pTGI (converted)): 5.37 µM
GI50 (SW-620): 0.339 µM
LC50 (SW-620): 9.33 µM
TGI (SW-620; read-out: pTGI (converted)): 1.29 µM
GI50 (MDA-N): 0.24 µM
CC50 (MDA-N; [3]): 8.51 µM
TGI (MDA-N; read-out: pTGI (converted)): 3.09 µM
GI50 (NCI-H226): 0.603 µM
CC50 (NCI-H226; [3]): 8.13 µM
TGI (NCI-H226; read-out: pTGI (converted)): 1.91 µM
GI50 [1]: 0.302 µM
CC50 [1, 3]: 32.4 µM
TGI ([1]; read-out: pTGI (converted)): 5.13 µM
GI50 (SF-268): 0.347 µM
CC50 (SF-268; [3]): 12.9 µM
TGI (SF-268; read-out: pTGI (converted)): 3.89 µM
GI50 (SK-MEL-2): 0.251 µM
CC50 (SK-MEL-2; [3]): 7.76 µM
TGI (SK-MEL-2; read-out: pTGI (converted)): 0.891 µM
GI50 (SNB-75): 2 µM
CC50 (SNB-75; [3]): 15.8 µM
TGI (SNB-75; read-out: pTGI (converted)): 6.61 µM
GI50 (SK-MEL-5): 0.0724 µM
CC50 (SK-MEL-5; [3]): 0.479 µM
TGI (SK-MEL-5; read-out: pTGI (converted)): 0.2 µM
GI50 (786-0): 0.288 µM
CC50 (786-0; [3]): 3.98 µM
TGI (786-0; read-out: pTGI (converted)): 1.1 µM
GI50 (HCC 2998): 0.257 µM
LC50 (HCC 2998): 2.19 µM
TGI (HCC 2998; read-out: pTGI (converted)): 0.692 µM
GI50 (PC-3): 0.191 µM
CC50 (PC-3; [3]): 10 µM
TGI (PC-3; read-out: pTGI (converted)): 1.1 µM
GI50 (NCI-H522): 0.151 µM
CC50 (NCI-H522; [3]): 0.646 µM
TGI (NCI-H522; read-out: pTGI (converted)): 0.38 µM
GI50 (RXF 393): 0.339 µM
CC50 (RXF 393; [3]): 18.2 µM
TGI (RXF 393; read-out: pTGI (converted)): 1.29 µM
GI50 (KM12): 0.17 µM
LC50 (KM12): 1.1 µM
TGI (KM12; read-out: pTGI (converted)): 0.38 µM
GI50 (OVCAR-3): 0.372 µM
CC50 (OVCAR-3; [3]): 5.25 µM
TGI (OVCAR-3; read-out: pTGI (converted)): 1.51 µM
GI50 (U-251): 0.813 µM
CC50 (U-251; [3]): 5.25 µM
TGI (U-251; read-out: pTGI (converted)): 2.19 µM
GI50 (MOLT-4): 0.209 µM
CC50 (MOLT-4; [3]): 67.6 µM
TGI (MOLT-4; read-out: pTGI (converted)): 0.813 µM
GI50 (MDA-MB-231): 0.229 µM
CC50 (MDA-MB-231; [3]): 9.12 µM
TGI (MDA-MB-231; read-out: pTGI (converted)): 0.603 µM
GI50 (A549): 0.339 µM
CC50 (A549; [3]): 47.9 µM
TGI (A549; read-out: pTGI (converted)): 5.75 µM
GI50 (MDA-MB-435): 0.17 µM
CC50 (MDA-MB-435; [3]): 4.47 µM
TGI (MDA-MB-435; read-out: pTGI (converted)): 0.832 µM
GI50 (UO-31): 1.29 µM
CC50 (UO-31; [3]): 5.5 µM
TGI (UO-31; read-out: pTGI (converted)): 2.69 µM
GI50 (NCI-H460): 0.347 µM
CC50 (NCI-H460; [3]): 42.7 µM
TGI (NCI-H460; read-out: pTGI (converted)): 1.82 µM
GI50 (SN12C): 1.41 µM
CC50 (SN12C; [3]): 32.4 µM
TGI (SN12C; read-out: pTGI (converted)): 11 µM
GI50 (CAKI-1): 0.251 µM
CC50 (CAKI-1; [3]): 3.39 µM
TGI (CAKI-1; read-out: pTGI (converted)): 0.676 µM
GI50 [2]: 2.4 µM
CC50 [2, 3]: 57.5 µM
TGI ([2]; read-out: pTGI (converted)): 8.32 µM
GI50 (SF-295): 2.88 µM
CC50 (SF-295; [3]): 51.3 µM
TGI (SF-295; read-out: pTGI (converted)): 9.55 µM
GI50 (OVCAR-8): 0.129 µM
CC50 (OVCAR-8; [3]): 21.9 µM
TGI (OVCAR-8; read-out: pTGI (converted)): 0.851 µM
GI50 (SK-OV-3): 2.82 µM
CC50 (SK-OV-3; [3]): 37.2 µM
TGI (SK-OV-3; read-out: pTGI (converted)): 7.94 µM
GI50 (HT-29): 0.363 µM
LC50 (HT-29): 3.63 µM
TGI (HT-29; read-out: pTGI (converted)): 1.29 µM
GI50 (LOX IMVI): 0.141 µM
LC50 (LOX IMVI): 7.94 µM
TGI (LOX IMVI; read-out: pTGI (converted)): 0.363 µM
GI50 (A498): 0.525 µM
CC50 (A498; [3]): 5.25 µM
TGI (A498; read-out: pTGI (converted)): 1.58 µM
GI50 (Malme-3M): 0.251 µM
LC50 (Malme-3M): 1.91 µM
TGI (Malme-3M; read-out: pTGI (converted)): 0.646 µM
GI50 (SNB-19): 3.39 µM
CC50 (SNB-19; [3]): 52.5 µM
TGI (SNB-19; read-out: pTGI (converted)): 12 µM
GI50 (HCT-116): 0.129 µM
LC50 (HCT-116): 3.47 µM
TGI (HCT-116; read-out: pTGI (converted)): 0.661 µM
GI50 (M14): 0.158 µM
LC50 (M14): 3.47 µM
TGI (M14; read-out: pTGI (converted)): 0.813 µM
GI50 (RPMI-8226): 0.0309 µM
LC50 (RPMI-8226): 100 µM
TGI (RPMI-8226; read-out: pTGI (converted)): 1 µM
GI50 (OVCAR-5): 4.47 µM
CC50 (OVCAR-5; [3]): 34.7 µM
TGI (OVCAR-5; read-out: pTGI (converted)): 12 µM
